The text below walks through data of article PMC9246256, “Structure-based optimization of type III indoleamine 2,3-dioxygenase 1 (IDO1) inhibitors” (Journal of Enzyme Inhibition and Medicinal Chemistry, 2022).

The target in data set [1] is T1, hIDO1 (Homo sapiens, UniProt P14902).
T1 construct: The full ORF of hIDO1 was cloned into the mammalian expression vector pcDNA6/myc-His; myc-His (vector-encoded); host or cells: HEK 293 T
To be noted: previously determined, 200 µM, cited from earlier work.

The subject of data set [2] is HEK 293 T cells. Conditions: previously determined, 200 µM, cited from earlier work.
The next data set concerns TDO. Further details: method as in PMID 22616902. Conditions: undetectable activity; cited from earlier work.
For data set [3], the target named is T2, purified recombinant IDO1 (Homo sapiens, UniProt P14902).
T2 construct: Full-length human IDO1 gene was cloned into the pET-28a vector; inferred from pET-28a vector and HisTrap purification; made in house; host or cells: E. coli Rosetta (DE3)
Briefly: Enzymatic IDO1 inhibition assay (ascorbate/methylene blue reduction system, HPLC detection of kynurenine). Conditions: for pIC50: enzymatic; for LE [kcal/mol/HA]: ligand efficiency, LE = -RT log(IC50)/number of heavy atoms, from enzymatic IC50. In kind it is biochemical.
Protocol: Enzymatic IC50 values were measured with the ascorbate/methylene blue reduction system[85] in presence of a non-ionic detergent to reduce compound aggregation as described before[28]. Kynurenine and L-Trp concentrations were determined by HPLC through UV detection.
Full-length human IDO1 gene was cloned into the pET-28a vector and expressed in E. coli Rosetta (DE3) cells. […] The culture was harvested and frozen at −80 °C until further use. The frozen cells were lysed by sonication in 20 mM Tris pH 7, 400 mM NaCl, 1 mM MgCl2, 20 mM imidazole, 1 mM DTT, 0.5 mg/mL Lysozyme and Protease inhibitor. After centrifugation, the supernatant was loaded into a HisTrap HP column pre-equilibrated with buffer containing 20 mM Tris pH 7, 500 mM NaCl and 20 mM imidazole, and eluted with the same buffer containing 500 mM imidazole. Fractions containing IDO1 were pooled, concentrated, and injected on a size exclusion chromatography column (HiLoad Superdex S75 16/60) to increase purity. hIDO1 fractions were concentrated to 20 mg/mL in 20 mM Tris pH 7 and 150 mM NaCl.
The enzymatic inhibition assays were performed as described by Takikawa et al.[130] with some modifications. Briefly, the reaction mixture (100 µL) contained potassium phosphate buffer (100 mM, pH 6.5) ascorbic acid (20 mM), catalase (400 units/mL), methylene blue (10 µM), purified recombinant IDO1 (2.5 ng/µL), L-Trp (100 µM), Triton X-100 (0.01%) and DMSO (5 µL). The inhibitors were serially diluted 3-fold for at least 8 different concentrations. After incubation at room temperature for 20 min, the reaction was stopped in its linear phase by addition of trichloroacetic acid solution (40 mL, 30% w/v), and the samples were incubated at 50 °C for 30 min. After centrifugation, 80 µl of supernatant from each well were used for HPLC analysis. The mobile phase for HPLC analysis was composed of 50% (v/v) of methanol and 50% of sodium citrate buffer (40 mM, pH 2.4) containing 400 µM sodium dodecyl sulphate. […] All assays were carried out in duplicates. The activity (Act) of each compound was calculated as Act = RT log(IC50) in analogy to the relation between the binding free energy and the Ki value. The ligand efficiency (LE) was calculated as LE = −Act/NHA, where NHA is the number of non-hydrogen atoms (heavy atoms) in the compound.

The next data set deals with IDO1. Conditions: cited from earlier work.
The next data set concerns murine IDO2. Set-up: method as in PMID 27469130. Conditions: murine IDO2, cellular; cited from earlier work.
For data set [4], the target named is T1, hIDO1. Briefly: Cellular hIDO1 inhibition (kynurenine production) in transiently transfected HEK 293 T cells. In kind it is cell-based. How it is done:
(§1) We tested the cellular hIDO1 inhibitory activity and toxicity of 30 active compounds at a single concentration (Figure 6 and Table 8). As some of the aniline derivatives reacted with Ehrlich’s reagent (p-dimethylaminobenzaldehyde, p-DMAB) used to quantify kynurenine, the kynurenine content of these samples was determined by HPLC. To be able to detect also weak inhibition, compounds were tested at the high concentration of 200 µM (Figure 6A and B, filled bars), except for less soluble compounds (52, 148, 149 and 153), which were tested at a concentration of 50 µM (Figure 6A and B, empty bars).
The cDNA encoding hIDO1 (NCBI, NM 0021464.3) was purchased from Origene as pCMV6-Entry vector (RC206592). The full ORF of hIDO1 was cloned into the mammalian expression vector pcDNA6/myc-His from Invitrogen. Human embryonic kidney 293 T (HEK 293 T) cells were transiently transfected with the plasmid construct encoding hIDO1. A 75 cm^2 flask containing HEK 293 T cells at a confluency of 70% was transfected with jetPEI DNA transfection reagent (Polyplus-transfection), according to manufacturer’s protocol. A total of 20 µg of pcDNA-IDO1 along with 5 µg of pcDNA-GFP plasmid were used for the transfection; GFP was used to evaluate transfection efficiency prior to the cellular assays. 16–18 h post-transfection the 293 T cells were detached with trypsin, centrifuged, and re-suspended in 25 mL of DMEM medium without phenol red, supplemented with penicillin and streptomycin, 10% foetal bovine serum and 1 mM pyruvate (Gibco). Subsequently, 100 µL of cells were distributed to each well of two 96-well round-bottom plates that had been pre-loaded with 100 µL DMEM and the small organic test molecule in DMSO (for a final DMSO concentration of 2%). DMEM medium contains 78 µM L-Trp and was supplemented with 500 µM of L-Trp. Cells transfected with hIDO1 were incubated for 7 h at 37 °C in a CO2 incubator. The reaction was stopped in its linear phase by adding trichloroacetic acid (TCA) to the medium at a final concentration of 4%. Plates were centrifuged for 15 min at 4,000 rpm. 100 µL of supernatant was added to 100 µL of 2% (w/v) DMAB in glacial acetic acid. After 10 min the absorbance was measured at a wavelength of 480 nm to detect kynurenine formation. Alternatively, kynurenine content was determined by HPLC as done for the enzymatic assay.

Data set [5] is described as follows: Compound solubility (qualitative remarks). It is filed as physicochemical.
Data set [6] relates to HEK 293 T cells. Briefly: Cell viability / cellular toxicity (DAPI staining, cytometry). It is filed as cell-based, human. Conditions: 7 h. How it is done:
as §1
Following DMSO (negative control) or inhibitor treatments, apoptotic cells were detected by 4′,6-diamidino-2-phenylindole (DAPI) staining. Briefly, after 7 h of incubation, cells were washed with PBS, resuspended in PBS with 1 µg/mL DAPI and immediately analysed using a BD LSR II cytometer. A 405 nm laser with 450/50 nm bandpass filter was used to collect data.

Data set [7] concerns the target T1, hIDO1. Briefly: Cellular hIDO1 inhibition (kynurenine production) in transiently transfected HEK 293 T cells. It is filed as cell-based. Conditions: HEK 293 T cells transfected with hIDO1; read-out: Cell. IC50 [ μ M] (SD).
Where [8] appears, read: ref 1 of Supporting Information (Röhrig et al. 2021).
Where [9] appears, read: L-Trp 100 µM, 0.01% Triton X-100, 5% DMSO, 20 min at room temperature, pH 6.5, duplicates, read-out: IC50 [ μ M] (SD).
Setting [10] is: values of Panda and co-workers, not reproduced here, read-out: published IC50 values.

pIC50: −log10 of the molar value. Values joined by “and” are separate entries in the source; they are usually repeats but may differ in a detail not shown here. Equal values may be shown once. “Also recorded” adds a separate entry of the source. Read-outs that look alike come from different tables or passages of the source.

T2 sequence (P14902 whole entry): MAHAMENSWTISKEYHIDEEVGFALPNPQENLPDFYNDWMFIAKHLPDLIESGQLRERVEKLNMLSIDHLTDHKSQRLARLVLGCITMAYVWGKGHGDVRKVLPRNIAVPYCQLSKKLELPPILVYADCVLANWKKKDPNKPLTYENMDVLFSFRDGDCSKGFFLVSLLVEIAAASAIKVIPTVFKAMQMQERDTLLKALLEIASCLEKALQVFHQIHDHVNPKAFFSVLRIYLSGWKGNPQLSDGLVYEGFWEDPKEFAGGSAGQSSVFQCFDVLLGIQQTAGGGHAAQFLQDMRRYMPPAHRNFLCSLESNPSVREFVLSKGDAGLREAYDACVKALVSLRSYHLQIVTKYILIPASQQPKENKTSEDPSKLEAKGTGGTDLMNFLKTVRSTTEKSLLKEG
T1 sequence (P14902 whole entry): as above

`Oc1ccc(Cl)cc1-c1cnn[nH]1` [Compound 9]: at hIDO1 [1] (setting [8]), the “Inh. [%]” value is 100%. The “Tox. [%]” value with HEK 293 T cells [2] (setting [8]) is reported as 4%. The “activities on TDO” value in the data set with TDO was greater than 100 µM.

What is called pIC50 is the IC50 on a negative log10 scale, so that one unit is a factor of ten. `Clc1ccc(Nc2cnn[nH]2)cc1` [Compound 10, reference compound]: the pIC50 was 4.25 in data set [3] (setting [9]) and 4.95 in the data set with IDO1 (read-out: IC50 value in the original publication). The “LE [kcal/mol/HA]” value in [3] is 0.44 kcal/mol/HA.

As to `Clc1cccc(-c2cnn[nH]2)c1/C=C/C1CCCCC1` [Compound 42], the pIC50 was 3.59 in data set [3] (setting [9]) and 3.96 in the data set on murine IDO2. Also, in data set [3], the “LE [kcal/mol/HA]” value came out at 0.24 kcal/mol/HA. Further, the “Inh. [%]” value at hIDO1 [1] (ref 3 of Supporting Information (Röhrig et al. 2016)) is on record as 56%. The “Tox. [%]” value in the data set on HEK 293 T cells [2] (ref 3 of Supporting Information (= main text ref 62)) was 5%.

The term inhibition denotes the percentage by which the read-out fell short of the control. A word on the melting point: it is the temperature, or range, at which the solid turns liquid. The compound `Clc1cc(Cl)c(-c2c[nH]nn2)cc1Cl` [Compound 52, 4–(2,4,5-Trichlorophenyl)-1,2,3-triazole] gave a melting point of 190 to 192 °C. Besides, at hIDO1 [4], testing at 50 µM gave an inhibition of 44%. The “solubility (in words)” value in data set [5] is given as “less soluble”. The pIC50 in [3] (setting [9]) is 4.48. For the same compound, the “LE [kcal/mol/HA]” value in data set [3] is reported as 0.44 kcal/mol/HA. For the same compound, the “Tox. [%]” value in the data set on HEK 293 T cells [6] (compound 50 µM) was 7.9 (1) %.

Take `Clc1cccc(-c2nn[nH]c2-c2cccc(Cl)c2)c1` [Compound 64, 4,5-Bis(3-chlorophenyl)-1,2,3-triazole, reference compound]: the pIC50 in [3] (setting [9]) was less than 4.30; in the data set on IDO1 (setting [10]) it was 5.60.

With `CCOC(=O)c1[nH]nnc1-c1ccc(Cl)cc1` [Compound 65, reference compound], the pIC50 in data set [3] (setting [9]) was less than 3.00; in the data set with IDO1 (setting [10]) it was 6.41.

For the compound `NC(=O)c1[nH]nnc1-c1ccc(Cl)cc1` [Compound 66, 4–(4-Chlorophenyl)-1H-1,2,3-triazole-5-carboxamide, reference compound], the figures for the pIC50 (in data set [3] (setting [9]); in the data set with IDO1 (setting [10])) were 3.10 and 6.21, respectively. For the same compound, in [3], the “LE [kcal/mol/HA]” value is 0.28 kcal/mol/HA.

In the case of `Nc1c(F)cccc1-c1nc[nH]n1` [Compound 140, 2-Fluoro-6-(1H-1,2,4-triazol-3-yl)aniline], 200 µM produced 100% inhibition at hIDO1 [4]. The pIC50 in data set [3] (setting [9]) is 6.09; at hIDO1 [7], 5.92. Moreover, the “LE [kcal/mol/HA]” value in [3] was determined as 0.64 kcal/mol/HA. Further, in the data set on HEK 293 T cells [6] (compound 200 µM), the “Tox. [%]” value was 17 (3) %.

On hIDO1 [4], `Nc1ccc(F)cc1-c1nc[nH]n1` [Compound 143, 4-Fluoro-2-(1H-1,2,4-triazol-3-yl)aniline] gave an inhibition at 200 µM of 86%. Further, the pIC50 in [3] (setting [9]) was 6.82; on hIDO1 [7] it was 6.60. In addition, the “LE [kcal/mol/HA]” value in data set [3] is 0.72 kcal/mol/HA. For the same compound, the “Tox. [%]” value in the data set on HEK 293 T cells [6] (compound 200 µM) is on record as 18 (0.5) %.

Consider `Nc1cc(F)c(Br)cc1-c1nc[nH]n1` [Compound 144, 4-Bromo-5-fluoro-2-(1H-1,2,4-triazol-3-yl)aniline], for which the melting point is 243 to 246 °C. For the same compound, at hIDO1 [4], the inhibition at 200 µM amounted to 100%. Also, the pIC50 in [3] (setting [9]) is 7.47. The pIC50 in [3] (read-out: enzymatic IC50) was 7.47. In addition, the “LE [kcal/mol/HA]” value in [3] is listed as 0.73 kcal/mol/HA. Also, the “Tox. [%]” value in the data set with HEK 293 T cells [6] (compound 200 µM) is on record as 17 (2) %. The pIC50 at hIDO1 [7] was 7.47.

`CCCC(=O)Nc1ccc(Cl)cc1-c1nc[nH]n1` [Compound 148, N-(4-Chloro-2-(1H-1,2,4-triazol-3-yl)phenyl)butyramide]: the melting point lay in the range of 156 to 158 °C. Testing at 50 µM against hIDO1 [4] gave an inhibition of 93%. In addition, the “solubility (in words)” value in data set [5] was “less soluble”. Also, in data set [3] (setting [9]), the pIC50 is 4.62 and 4.60. Further, in data set [3], the “LE [kcal/mol/HA]” value is recorded as 0.35 kcal/mol/HA. Besides, the “Tox. [%]” value in the data set with HEK 293 T cells [6] (compound 50 µM) is 17 (2) %.

Turning to `O=C(Nc1ccc(Cl)cc1-c1nc[nH]n1)C1CC1` [Compound 149, N-(4-Chloro-2-(1H-1,2,4-triazol-3-yl)phenyl)cyclopropanecarboxamide], the melting point lay within 183 to 186 °C. This compound returned an inhibition at 50 µM against hIDO1 [4] of 100%. Further, the “solubility (in words)” value in data set [5] is listed as “less soluble”. Moreover, the pIC50 in data set [3] (setting [9]) is 6.31. Further, the “LE [kcal/mol/HA]” value in data set [3] came out at 0.48 kcal/mol/HA. The “Tox. [%]” value in the data set on HEK 293 T cells [6] (compound 50 µM) was 19 (2) %.

In turn, `O=C(Nc1ccc(Cl)cc1-c1nc[nH]n1)C1CCC1` [Compound 150, N-(4-Chloro-2-(1H-1,2,4-triazol-3-yl)phenyl)cyclobutanecarboxamide] had a melting point of 201 to 203 °C. Also, the “solubility (in words)” value in data set [5] was “strongly reduced solubilities”. The pIC50 in data set [3] (setting [9]) is less than 4.00.

As to `O=C(Nc1ccc(Cl)cc1-c1nc[nH]n1)C1CCCC1` [Compound 151, N-(4-Chloro-2-(1H-1,2,4-triazol-3-yl)phenyl)cyclopentanecarboxamide], the melting point fell in the range of 197 to 199 °C. The “solubility (in words)” value in data set [5] is reported as “strongly reduced solubilities”. In addition, the pIC50 in [3] (setting [9]) was less than 4.00.

At hIDO1 [4], `O=C(Nc1ccc(Cl)cc1-c1nc[nH]n1)c1ccccc1` [Compound 153, N-(4-Chloro-2-(1H-1,2,4-triazol-3-yl)phenyl)benzamide] displayed an inhibition at 50 µM of 87%. Besides, in [5], the “solubility (in words)” value is “low solubility; also recorded: less soluble”. Also, the pIC50 in data set [3] (setting [9]) is 5.03. In addition, in the data set with HEK 293 T cells [6] (compound 50 µM), the “Tox. [%]” value is listed as 5.9 (8) %.
